# Experimental data reported in ChEMBL document CHEMBL1152083, “Structure-activity studies of nonmacrocyclic rapamycin derivatives” (Bioorg Med Chem Lett, 1993).
# The source made the active and inactive calls. No cut-off for these calls is given here.
# How the values were obtained:
# [1] = species on record: Mus musculus; experiment: In vitro immunosuppressive activity by splenocyte mitogenesis assay in spleen cells from BDF1 female mice at 1 pM to 10 uM concentration; not active; assay type: functional, cell-based
# [2] = Binding affinity for FK506 binding protein; details: read-out: Ki app
# [3] = species on record: Mus musculus; experiment: In vitro immunosuppressive activity by splenocyte mitogenesis assay in spleen cells from BDF1 female mice at 1 pM to 10 uM concentration; assay type: functional, cell-based
# [4] = Binding affinity for FK506 binding protein; value ranges from 2-6 nM; details: read-out: Ki app
SMILES,Ki [2],IC50 [3],Ki [4],Activity [1]
COCC(=O)[C@H](C)C[C@H](C)\C=C/C=C/C=C(\C)[C@H](C[C@@H]1CC[C@@H](C)[C@](O)(C(=O)C(=O)N2CCCC[C@H]2C(=O)OC)O1)OC,12 nM,,,inactive
COCC(=O)[C@H](C)C[C@H](C)\C=C/C=C/C=C(\C)[C@H](C[C@@H]1CC[C@@H](C)[C@](O)(C(=O)C(=O)N2CCCC[C@H]2C(=O)NCCCc2ccccc2)O1)OC,32 nM,,,inactive
CO[C@H]1C[C@@H]2CC[C@@H](C)[C@@](O)(O2)C(=O)C(=O)N2CCCC[C@H]2C(=O)O[C@H]([C@H](C)C[C@@H]2CC[C@@H](O)[C@H](OC)C2)CC(=O)[C@H](C)/C=C(\C)[C@@H](O)[C@@H](OC)C(=O)[C@H](C)C[C@H](C)/C=C/C=C/C=C/1C [SIROLIMUS],0.5 nM,1 nM,,
COCC(=O)[C@H](C)C[C@H](C)\C=C/C=C/C=C(\C)[C@H](C[C@@H]1CC[C@@H](C)[C@](O)(C(=O)C(=O)N2CCCC[C@H]2C(=O)OCCCc2ccc(OC)c(OC)c2)O1)OC,43 nM,,,inactive
CO[C@@H](C[C@@H]1CC[C@@H](C)[C@](O)(C(=O)C(=O)N2CCCC[C@H]2C(=O)OCc2ccccc2)O1)/C(C)=C/C=C/C=C\[C@@H](C)C[C@@H](C)C(=O)[C@H](OC)[C@H](O)/C(C)=C/[C@@H](C)C(=O)/C=C/[C@H](C)C[C@@H]1CC[C@@H](O)[C@H](OC)C1,,,2 nM,inactive
COCC(=O)[C@H](C)C[C@H](C)\C=C/C=C/C=C(\C)[C@H](C[C@@H]1CC[C@@H](C)[C@](O)(C(=O)C(=O)N2CCCC[C@H]2C(=O)OC/C=C/c2ccccc2)O1)OC,31 nM,,,inactive
COCC(=O)[C@H](C)C[C@H](C)\C=C/C=C/C=C(\C)[C@H](C[C@@H]1CC[C@@H](C)[C@](O)(C(=O)C(=O)N2CCCC[C@H]2C(=O)OCc2ccccc2)O1)OC,15 nM,,,inactive
CCC(C)(C)C(=O)C(=O)N1CCCC[C@H]1C(=O)O[C@@H](CC(=O)[C@H](C)/C=C(\C)[C@@H](O)[C@@H](OC)C(=O)[C@H](C)C[C@H](C)\C=C/C=C/C=C(\C)[C@H](C[C@@H]1CC[C@@H](C)C(=O)O1)OC)[C@H](C)C[C@@H]1CC[C@@H](O)[C@H](OC)C1,20 nM,,,inactive

# Continued by falling Ki [2], values first:
Ki [2],IC50 [3],Ki [4],SMILES,Activity [1]
500 nM,,,COCC(=O)[C@H](C)C[C@H](C)\C=C/C=C/C=C(\C)[C@H](C[C@@H]1CC[C@@H](C)[C@](O)(C(=O)C(=O)N2CCCC[C@H]2C(=O)O)O1)OC,inactive
110 nM,,,COCC(=O)[C@H](C)C[C@H](C)\C=C/C=C/C=C(\C)[C@H](C[C@@H]1CC[C@@H](C)[C@](O)(C(=O)C(=O)N2CCCC[C@H]2C(=O)NCc2ccccc2)O1)OC,inactive
51 nM,,,COCC(=O)[C@H](C)C[C@H](C)\C=C/C=C/C=C(\C)[C@H](C[C@@H]1CC[C@@H](C)[C@](O)(C(=O)C(=O)N2CCCC[C@H]2C(=O)OC(C)C)O1)OC,inactive
41 nM,,,COCC(=O)[C@H](C)C[C@H](C)\C=C/C=C/C=C(\C)[C@H](C[C@@H]1CC[C@@H](C)[C@](O)(C(=O)C(=O)N2CCCC[C@H]2C(=O)OC(C)c2ccccc2)O1)OC (stereo partly drawn),inactive
29 nM,,,COC(=O)[C@@H]1CCCCN1C(=O)C(=O)[C@]1(O)O[C@H](C[C@H](OC)/C(C)=C/C=C/C=C\[C@@H](C)C[C@@H](C)C(=O)[C@H](OC)[C@H](O)/C(C)=C/[C@@H](C)C(=O)/C=C/[C@H](C)C[C@@H]2CC[C@@H](O)[C@H](OC)C2)CC[C@H]1C,inactive
4 nM,,,COCC(=O)[C@H](C)C[C@H](C)\C=C/C=C/C=C(\C)[C@H](C[C@@H]1CC[C@@H](C)[C@](O)(C(=O)C(=O)N2CCCC[C@H]2C(=O)O[C@@H](CC(=O)[C@H](C)/C=C(\C)C=O)[C@H](C)C[C@@H]2CC[C@@H](O)[C@H](OC)C2)O1)OC,inactive
